For one assay, the target named is D3 receptor (Homo sapiens (Human), UniProt P35462). The assay can be described thus: Radioligand binding assay ([3H]-spiperone) on membranes of HEK293 EBNA cells expressing human D3 receptor.
For another assay, the target named is 5-HT2A receptor (Homo sapiens (Human), UniProt P28223). As to the kind of experiment: Radioligand binding assay ([3H]-ketanserin) on membranes of HEK293 EBNA cells expressing human 5-HT2A receptor.
Another assay concerns the target D2 receptor (Homo sapiens (Human), UniProt P14416). As to the kind of experiment: Radioligand binding assay ([3H]-spiperone) on membranes of HEK293 EBNA cells expressing human D2 receptor. The settings on record: human receptor in HEK293 EBNA cells; 0.7 nM [3H]-spiperone.
Where [1] appears, read: read-out: D3 Ki, human receptor in HEK293 EBNA cells, 0.5 nM [3H]-spiperone.
Where [2] appears, read: read-out: 5HT2A Ki, human receptor in HEK293 EBNA cells, 1.1 nM [3H]-ketanserin.

The term Ki denotes a measure of affinity in units of concentration, obtained from inhibition or displacement.

Like-named read-outs stand apart in the source and are kept apart here.

Sequence of D2 receptor (P14416 whole entry): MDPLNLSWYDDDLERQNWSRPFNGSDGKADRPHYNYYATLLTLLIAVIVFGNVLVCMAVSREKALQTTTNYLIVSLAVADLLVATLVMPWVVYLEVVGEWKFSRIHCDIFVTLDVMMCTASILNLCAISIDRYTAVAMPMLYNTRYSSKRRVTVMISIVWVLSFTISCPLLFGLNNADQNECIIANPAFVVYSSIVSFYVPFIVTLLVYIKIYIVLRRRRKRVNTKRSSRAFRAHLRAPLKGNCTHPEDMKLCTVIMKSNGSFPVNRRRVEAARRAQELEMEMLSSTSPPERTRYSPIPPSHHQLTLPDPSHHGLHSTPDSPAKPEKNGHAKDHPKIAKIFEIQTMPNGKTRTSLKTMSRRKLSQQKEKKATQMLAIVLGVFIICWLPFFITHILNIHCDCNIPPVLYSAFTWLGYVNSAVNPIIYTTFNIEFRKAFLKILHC
Sequence of D3 receptor (P35462 whole entry): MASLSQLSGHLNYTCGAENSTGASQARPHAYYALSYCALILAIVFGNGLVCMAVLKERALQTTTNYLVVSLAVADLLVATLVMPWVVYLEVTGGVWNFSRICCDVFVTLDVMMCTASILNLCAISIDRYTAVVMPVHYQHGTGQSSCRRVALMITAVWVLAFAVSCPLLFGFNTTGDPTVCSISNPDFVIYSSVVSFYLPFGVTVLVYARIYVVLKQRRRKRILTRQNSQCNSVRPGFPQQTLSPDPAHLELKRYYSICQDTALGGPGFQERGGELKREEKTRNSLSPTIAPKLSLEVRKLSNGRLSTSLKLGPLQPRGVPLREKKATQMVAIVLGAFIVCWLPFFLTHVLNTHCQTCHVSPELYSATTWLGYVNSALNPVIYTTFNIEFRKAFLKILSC
Procedure for D2 receptor: (§1) HEK293 EBNA cells were transiently transfected with expression plasmids encoding for the human D2 or D3 or for the human 5-HT2A receptor, respectively. The cells were harvested 48 h post-transfection, washed three times with cold PBS and stored at −80° C. prior to use. The pellet was suspended in cold 50 mM Tris-HCl buffer containing 10 mM EDTA (pH 7.4) and was homogenized with a Polytron (Kinematica AG, Basel, Switzerland) for 20-30 sec at 12.000 rpm. After centrifugation at 48.000×g for 30 min at 4° C., the pellet was resuspended in cold 10 mM Tris-HCl buffer containing 0.1 mM EDTA (pH 7.4), homogenized, and centrifuged as above. This pellet was further resuspended in a smaller volume of ice cold 10 mM Tris-HCl buffer containing 0.1 mM EDTA (pH 7.4) and homogenized with a Polytron for 20-30 sec at 12.000 rpm. The protein content of this homogenate was determined with the Bio-Rad (Bradford) Protein Assay (Biorad Laboratories GmbH, München, Germany) according to the instructions of the manufacturer using gamma globulin as the standard. This homogenate was stored at −80° C. in aliquots and thawed immediately prior to use.
(§2) Aliquots of membrane preparations were thawed at RT, resuspended in assay buffer (D2, D3: 50 mM Tris-HCl, 120 mM NaCl, 5 mM MgCl2, 1 mM EDTA, 5 mM KCl, 1.5 mM CaCl2, pH=7.4; 5-HT2A: 50 mM Tris-HCl, 10 mM MgCl2, 1 mM EGTA, pH=7.4), homogenized with a Polytron for 20-30 sec at 12.000 rpm and adjusted to a final concentration of approximately 7.5 μg protein/well (D2, D3) and 15 μg protein/well (5-HT2A), respectively.
(§3) The nonspecific binding was determined with equally composed reaction mixtures in the presence of 10 μM unlabelled spiperone. Per well 45 μl of Microscint 40 (Perkin Elmer, Schwerzenbach, Switzerland) was added, plates for sealed, shaken for 20 min and counted for 3 min on a Topcount Microplate Scintillation Counter (Can berra Packard SA, Ziirich, Switzerland) with quenching correction.
(§4) The CPM value for each duplicate of a concentration of competing compound was averaged (y1), then the % specific binding was calculated according to the equation (((y1−non-specific)/(total binding−non-specific))×100). Graphs were plotted with the % specific binding using XLfit, a curve fitting program that iteratively plots the data using Levenberg-Marquardt algorithm. The single site competition analysis equation used was y=A+((B−A)/(1+((x/C)D))), where y is the % specific binding, A is the minimum y, B is the maximum y, C is the IC50, x is the log 10 of the concentration of the competing compound and D is the slope of the curve (the Hill Coefficient). […] The affinity constant (K) was calculated using the Cheng-Prusoff equation Ki=(IC50/1+([L]/Kd), where [L] is the concentration of radioligand and Kd is the dissociation constant of the radioligand at the receptor as determined by the saturation isotherm.
Procedure for D3 receptor: as §1, §2, §3, §4

For the compound `O=C(C[C@H]1COCCO1)N[C@H]1CC[C@H](CCN2CCC(c3cccc4c3OCO4)CC2)CC1` (single isomer, unassigned) [Example 4, Trans-N-{4-[2-(4-Benzo[1,3]dioxol-4-yl-piperidin-1-yl)-ethyl]-cyclohexyl}-2-(S) or (R)-[1,4]dioxan-2-yl-acetamide], the values for the Ki at D3 receptor and at 5-HT2A receptor were 9.79 nM and 11.9 nM, respectively.

With `O=C(C[C@@H]1COCCO1)N[C@H]1CC[C@H](CCN2CCC(c3cccc4c3OCO4)CC2)CC1` (single isomer, unassigned) [Example 5, Trans-N-{4-[2-(4-Benzo[1,3]dioxol-4-yl-piperidin-1-yl)-ethyl]-cyclohexyl}-2-(R) or (S)-[1,4]dioxan-2-yl-acetamide], the inhibitory constant (Ki) on D3 receptor came out at 9.5 nM; on 5-HT2A receptor, 17 nM.

With `CC(=O)N[C@H]1CC[C@H](CCN2CCC(c3cccc4c3OCO4)CC2)CC1` [Example 1, Trans-N-{4-[2-(4-Benzo[1,3]dioxol-4-yl-piperidin-1-yl)-ethyl]-cyclohexyl}-acetamide], the Ki stood at 254 nM at D2 receptor, 4.99 nM on D3 receptor (setting [1]) and 23.9 nM at 5-HT2A receptor (setting [2]).

For the compound `COCCC(=O)N[C@H]1CC[C@H](CCN2CCC(c3cccc4c3OCO4)CC2)CC1` [Example 2, Trans-N-{4-[2-(4-Benzo[1,3]dioxol-4-yl-piperidin-1-yl)-ethyl]-cyclohexyl}-3-methoxy-propionamide], the Ki at D2 receptor is 427 nM; on D3 receptor (setting [1]), 5.82 nM; at 5-HT2A receptor (setting [2]) it was 38.2 nM.

Turning to `O=C(CC1COCCO1)N[C@H]1CC[C@H](CCN2CCC(c3cccc4c3OCO4)CC2)CC1` (stereo partly drawn) [Example 3, Trans-N-{4-[2-(4-Benzo[1,3]dioxol-4-yl-piperidin-1-yl)-ethyl]-cyclohexyl}-2-[1,4]dioxan-2-yl-acetamide], the results for the Ki at D3 receptor (setting [1]) and at 5-HT2A receptor (read-out: 5HT2A Ki) were 8.88 nM and 13.9 nM, respectively.

As to `O=C(CC1CCCO1)N[C@H]1CC[C@H](CCN2CCC(c3cccc4c3OCO4)CC2)CC1` (stereo partly drawn) [Example 6, Trans-N-{4-[2-(4-Benzo[1,3]dioxol-4-yl-piperidin-1-yl)-ethyl]-cyclohexyl}-2-(tetrahydro-furan-2-yl)-acetamide], the inhibition constant Ki on D2 receptor was 389 nM; at D3 receptor (setting [1]), 9.06 nM; on 5-HT2A receptor (read-out: 5HT2A Ki) it was 21 nM.

Take `CCC(=O)N[C@H]1CC[C@H](CCN2CCC(c3cccc4c3OCO4)CC2)CC1` [Example 7, Trans-N-{4-[2-(4-Benzo[1,3]dioxol-4-yl-piperidin-1-yl)-ethyl]-cyclohexyl}-propionamide]: the values for the inhibitory constant (Ki) on D2 receptor, at D3 receptor (setting [1]) and at 5-HT2A receptor (setting [2]) were 204 nM, 4.19 nM and 16.6 nM, respectively.

For the compound `O=C(CC1CC1)N[C@H]1CC[C@H](CCN2CCC(c3cccc4c3OCO4)CC2)CC1` [Example 8, Trans-N-{4-[2-(4-Benzo[1,3]dioxol-4-yl-piperidin-1-yl)-ethyl]-cyclohexyl}-2-cyclopropyl-acetamide], the Ki is 303 nM at D2 receptor, 2.54 nM on D3 receptor (setting [1]) and 17.6 nM on 5-HT2A receptor (setting [2]).

Turning to `O=C(N[C@H]1CC[C@H](CCN2CCC(c3cccc4c3OCO4)CC2)CC1)c1ccccc1` [Example 9, Trans-N-{4-[2-(4-Benzo[1,3]dioxol-4-yl-piperidin-1-yl)-ethyl]-cyclohexyl}-benzamide], the Ki at D2 receptor turned out to be 120 nM; at D3 receptor (setting [1]) it was 3.63 nM; at 5-HT2A receptor (read-out: 5HT2A Ki), 5.14 nM.

As for `O=C(CC(F)(F)F)N[C@H]1CC[C@H](CCN2CCC(c3cccc4c3OCO4)CC2)CC1` [Example 10, Trans-N-{4-[2-(4-Benzo[1,3]dioxol-4-yl-piperidin-1-yl)-ethyl]-cyclohexyl}-3,3,3-trifluoro-propionamide], the Ki on D2 receptor amounted to 209 nM; at D3 receptor (setting [1]) it was 3.98 nM; at 5-HT2A receptor (setting [2]), 18.1 nM.

As for `O=C(CCC(F)(F)F)N[C@H]1CC[C@H](CCN2CCC(c3cccc4c3OCO4)CC2)CC1` [Example 11, Trans-N-{4-[2-(4-Benzo[1,3]dioxol-4-yl-piperidin-1-yl)-ethyl]-cyclohexyl}-4,4,4-trifluoro-butyramide], the Ki was 410 nM at D2 receptor, 7.74 nM at D3 receptor (setting [1]) and 32 nM on 5-HT2A receptor (setting [2]).

As for `O=C(N[C@H]1CC[C@H](CCN2CCC(c3cccc4c3OCO4)CC2)CC1)C(O)C(F)(F)F` (stereo partly drawn) [Example 12, Trans-N-{4-[2-(4-Benzo[1,3]dioxol-4-yl-piperidin-1-yl)-ethyl]-cyclohexyl}-3,3,3-trifluoro-2-hydroxy-propionamide], the results for the inhibition constant (Ki) at D2 receptor, at D3 receptor (setting [1]) and at 5-HT2A receptor (read-out: 5HT2A Ki) were 236 nM, 8.45 nM and 14 nM, respectively.

`COCC(=O)N[C@H]1CC[C@H](CCN2CCC(c3cccc4c3OCO4)CC2)CC1` [Example 13, Trans-N-{4-[2-(4-Benzo[1,3]dioxol-4-yl-piperidin-1-yl)-ethyl]-cyclohexyl}-2-methoxy-acetamide]: the inhibition constant Ki at D2 receptor is 507 nM; on D3 receptor (setting [1]), 18 nM; on 5-HT2A receptor (read-out: 5HT2A Ki) it was 14.6 nM.

As to `N#Cc1ccc(C(=O)N[C@H]2CC[C@H](CCN3CCC(c4cccc5c4OCO5)CC3)CC2)cc1` [Example 14, Trans-N-{4-[2-(4-Benzo[1,3]dioxol-4-yl-piperidin-1-yl)-ethyl]-cyclohexyl}-4-cyano-benzamide], the figures for the Ki on D2 receptor, on D3 receptor (setting [1]) and on 5-HT2A receptor (setting [2]) were 153 nM, 7.79 nM and 9.02 nM, respectively.

Consider `Cc1ccc(C(=O)N[C@H]2CC[C@H](CCN3CCC(c4cccc5c4OCO5)CC3)CC2)cn1` [Example 15, Trans-N-{4-[2-(4-Benzo[1,3]dioxol-4-yl-piperidin-1-yl)-ethyl]-cyclohexyl}-6-methyl-nicotinamide], for which the Ki at D2 receptor was determined as 133 nM; on D3 receptor (setting [1]) it was 11.6 nM; at 5-HT2A receptor (setting [2]), 11.5 nM.

As for `O=C(C[C@H]1CCCO1)N[C@H]1CC[C@H](CCN2CCC(c3cccc4c3OCO4)CC2)CC1` [Example 16, Trans-N-{4-[2-(4-Benzo[1,3]dioxol-4-yl-piperidin-1-yl)-ethyl]-cyclohexyl}-2-(R)-tetrahydro-furan-2-yl-acetamide], the inhibition constant (Ki) on D2 receptor was found to be 228 nM; on D3 receptor (setting [1]), 10.8 nM; at 5-HT2A receptor (read-out: 5HT2A Ki), 28 nM.

In the case of `O=C(C[C@@H]1CCCO1)N[C@H]1CC[C@H](CCN2CCC(c3cccc4c3OCO4)CC2)CC1` [Example 17, Trans-N-{4-[2-(4-Benzo[1,3]dioxol-4-yl-piperidin-1-yl)-ethyl]-cyclohexyl}-2-(S)-tetrahydro-furan-2-yl-acetamide], the Ki at D2 receptor came out at 531 nM; on D3 receptor (setting [1]) it was 6.41 nM; on 5-HT2A receptor (read-out: 5HT2A Ki), 33.8 nM.

Take `COC(=O)N[C@H]1CC[C@H](CCN2CCC(c3cccc4c3OCO4)CC2)CC1` [Example 18, Trans-{4-[2-(4-Benzo[1,3]dioxol-4-yl-piperidin-1-yl)-ethyl]-cyclohexyl}-carbamic acid methyl ester]: the values for the inhibition constant Ki at D2 receptor, on D3 receptor (setting [1]) and at 5-HT2A receptor (read-out: 5HT2A Ki) were 133 nM, 3.26 nM and 21.8 nM, respectively.

For the compound `Cc1cc(CC(=O)N[C@H]2CC[C@H](CCN3CCC(c4cccc5c4OCO5)CC3)CC2)on1` [Example 19, Trans-N-{4-[2-(4-Benzo[1,3]dioxol-4-yl-piperidin-1-yl)-ethyl]-cyclohexyl}-2-(3-methyl-isoxazol-5-yl)-acetamide], the figures for the inhibition constant (Ki) at D2 receptor, on D3 receptor (setting [1]) and on 5-HT2A receptor (setting [2]) were 516 nM, 1.19 nM and 19.8 nM, respectively.

Take `N#CCC(=O)N[C@H]1CC[C@H](CCN2CCC(c3cccc4c3OCO4)CC2)CC1` [Example 20, Trans-N-{-4-[2-(4-Benzo[1,3]dioxol-4-yl-piperidin-1-yl)-ethyl]-cyclohexyl}-2-cyano-acetamide]: the results for the Ki at D2 receptor, at D3 receptor (setting [1]) and at 5-HT2A receptor (read-out: 5HT2A Ki) were 203 nM, 3.12 nM and 22.4 nM, respectively.

As for `O=C(CC1(O)CCCCC1)N[C@H]1CC[C@H](CCN2CCC(c3cccc4c3OCO4)CC2)CC1` [Example 21, Trans-N-{4-[2-(4-Benzo[1,3]dioxol-4-yl-piperidin-1-yl)-ethyl]-cyclohexyl}-2-(1-hydroxy-cyclohexyl)-acetamide], the Ki at D2 receptor amounted to 361 nM; at D3 receptor (setting [1]) it was 10.4 nM; on 5-HT2A receptor (read-out: 5HT2A Ki), 15.7 nM.

Regarding `O=C(CC1CCCCO1)N[C@H]1CC[C@H](CCN2CCC(c3cccc4c3OCO4)CC2)CC1` (stereo partly drawn) [Example 22, Trans-N-{4-[2-(4-Benzo[1,3]dioxol-4-yl-piperidin-1-yl)-ethyl]-cyclohexyl}-2-(tetrahydro-pyran-2-yl)-acetamide], the inhibition constant (Ki) turned out to be 523 nM at D2 receptor, 9.35 nM at D3 receptor (setting [1]) and 15.6 nM on 5-HT2A receptor (read-out: 5HT2A Ki).

For `CC(C)C(=O)N[C@H]1CC[C@H](CCN2CCC(c3cccc4c3OCO4)CC2)CC1` [Example 23, Trans-N-{4-[2-(4-Benzo[1,3]dioxol-4-yl-piperidin-1-yl)-ethyl]-cyclohexyl}-isobutyramide], the Ki on D2 receptor is 397 nM; on D3 receptor (setting [1]) it was 8.26 nM; on 5-HT2A receptor (read-out: 5HT2A Ki), 17 nM.

For `CC(C)CC(=O)N[C@H]1CC[C@H](CCN2CCC(c3cccc4c3OCO4)CC2)CC1` [Example 24, Trans-N-{4-[2-(4-Benzo[1,3]dioxol-4-yl-piperidin-1-yl)-ethyl]-cyclohexyl}-3-methyl-butyramide], the results for the Ki at D2 receptor, on D3 receptor (setting [1]) and at 5-HT2A receptor (setting [2]) were 239 nM, 5 nM and 28.5 nM, respectively.

For the compound `CCCC(=O)N[C@H]1CC[C@H](CCN2CCC(c3cccc4c3OCO4)CC2)CC1` [Example 25, Trans-N-{4-[2-(4-Benzo[1,3]dioxol-4-yl-piperidin-1-yl)-ethyl]-cyclohexyl}-butyramide], the values for the Ki on D2 receptor, on D3 receptor (setting [1]) and at 5-HT2A receptor (setting [2]) were 277 nM, 5.7 nM and 35.8 nM, respectively.

Turning to `O=C(N[C@H]1CC[C@H](CCN2CCC(c3cccc4c3OCO4)CC2)CC1)C1CC1(F)F` (stereo partly drawn) [Example 26, Trans-2,2-Difluoro-cyclopropanecarboxylic acid {4-[2-(4-benzo[1,3]dioxol-4-yl-piperidin-1-yl)-ethyl]-cyclohexyl}-amide], the results for the inhibition constant Ki at D2 receptor, at D3 receptor (setting [1]) and at 5-HT2A receptor (setting [2]) were 194 nM, 7.72 nM and 26.7 nM, respectively.

The values are drawn from patent US8598357B2, “Benzodioxole piperidine compounds” (Hoffmann-La Roche Inc., priority 2011, dated 2013).
